# Results taken from patent publication US7595326B2, “Synthesis of novel tubulin polymerization inhibitors: benzoylphenylurea (BPU) sulfur analogs” (Champions Biotechnology, Inc., priority 2005, dated 2009).
# pIC50: −log10 of the molar value.
# Key:
# [1] = test system: MCF-7 cells; test: Apoptosis of MCF-7 cells; format: cell-based; details: 48 hours
# [2] = test system: ASPC1; test: MTT growth inhibition, pancreatic cancer cell line ASPC1; format: cell-based; details: Homo sapiens, 96-hours treatment, average of three independent experiments
# Protocol: (§1) Eight of these analogs 6d, 6h, 6n, 6g, 7b, 7d, 8g, and 8h were tested for their cytotoxicity in seven pancreatic cell lines ASPC1, Panc1, Panc203, Panc430, Pane 1005, MiaPaca2, and HS766T using MTT assay. Cells were trypsinized, seeded at 5×10^3 cells/well in 96-well plate and allowed to grow for 24 hours before the treatment with exponential increasing concentrations of drugs in the presence of 10% FBS. After a 96-hours period of treatment, 20 μl of MTT solution (5 mg/ml in PBS) were added to each well, and the plates were then incubated for 3 hours at 37° C. Medium was then replaced with 100 μl of DMSO per well. Plates were shaken and the optical density was measured at 570 nm using a multiwell plate reader (Bio-Rad, Model 550, Bio-Rad Inc., Hercules, Calif.). Each experiment was performed in triplicate for each drug concentration and was carried out independently at least 3 times. The IC50 value was defined as the concentration needed for a 50% reduction in the absorbance calculated based on the survival curves. Response to drug treatment was assessed by standardizing treatment groups to untreated controls. Compounds activity was compared with compound 1.
# (§2) Biology. Table 2 (Growth Inhibition of Pancreatic Cancer Cell Lines by BPU and BPTU Analogues (IC50)^a)compares the cytotoxicity of a series of new derivatives against a panel of seven pancreatic cancer cell lines, as determined by MTT assay. See, Mosmann, T., J. Immunol. Methods 65:55-63 (1983).
# [3] = test system: Panc203; test: MTT growth inhibition, pancreatic cancer cell line Panc203; format: cell-based; details: for pIC50: Homo sapiens, Panc203, MTT, 96-hours treatment, average of three independent experiments
# Protocol: as §1, §2
# [4] = test system: Panc1005; test: MTT growth inhibition, pancreatic cancer cell line Panc1005; format: cell-based; details: Homo sapiens, 96-hours treatment, average of three independent experiments
# Protocol: as §1, §2
# [5] = test system: Panc1; test: MTT growth inhibition, pancreatic cancer cell line Panc1; format: cell-based; details: for pIC50: Homo sapiens, PANC-1, MTT, 96-hours treatment, average of three independent experiments
# Protocol: as §1, §2
# [6] = test system: Miapaca2; test: MTT growth inhibition, pancreatic cancer cell line Miapaca2; format: cell-based; details: for pIC50: Homo sapiens, MIA PaCa-2, MTT, 96-hours treatment, average of three independent experiments
# Protocol: as §1, §2
# [7] = test system: Panc430; test: MTT growth inhibition, pancreatic cancer cell line Panc430; format: cell-based; details: for pIC50: Pancreatic cancer cell, MTT, 96-hours treatment, average of three independent experiments
# Protocol: as §1, §2
# [8] = test system: HS766; test: MTT growth inhibition, pancreatic cancer cell line HS766; format: cell-based; details: Homo sapiens, Hs 766, 96-hours treatment, average of three independent experiments
# Protocol: as §1, §2
# [9] = test system: LAPC-4; test: MTT growth inhibition, prostate cancer cell line LAPC-4; format: cell-based, human; details: for pIC50: Homo sapiens, LAPC4, MTT, average of three independent experiments
# Protocol: (§3) This MTT assay was carried using human prostate cancer cell lines CWR22R, LAPC-4 and LnCap using Promega cell titer 96 nonradioactive cell proliferation kit. Cells were trypsinized and centrifuged at 1000 rpm for 5 minutes and the supernatant was aspirated. Cells were resuspended with HBSS to a concentration of […]. Cell suspension was diluted in serum containing medium to plate 2000 cells/well/0.2 ml. Cell suspension was transferred to sterile solution basin. Cells were plated using multichannel pipette set at 200 μl and incubated overnight for attachment. One plate was prepared for day 0 MTT assay as follows: 100 μl of media was removed from each well using multichannel pipette and 15 μl of MTT reagent was added. Plates were incubated at 37° C. for 4 hrs. 100 μl of STOP solution was added to each well and incubated at room temperature for 1 hour. Absorbance was measured at 570 and 650 nm on plate reader. All the media from the remaining plates were carefully removed and the cells were treated with the media containing drug. MTT assays were done on days 0, 3, 5 and 7. In the preliminary screening four BPU sulfur analogs 6l, 6h, 6n, 7d and 8h were screened and their activity was compared with compound 1.
# (§4) Compounds with significant inhibitory activity in pancreatic cancer cells were further evaluated against prostate cancer cell lines in the MTT assay, (Mosmann, T., J. Immunol. Methods 65:55-63 (1983)) and the results were compared to those for compound 1 (Table 3).
# [10] = test system: LnCaP; test: MTT growth inhibition, prostate cancer cell line LnCaP; format: cell-based, human; details: for pIC50: Homo sapiens, LNCaP, MTT, average of three independent experiments
# Protocol: as §3, §4
# [11] = test system: CWR22R; test: MTT growth inhibition, prostate cancer cell line CWR22R; format: cell-based, human; details: for pIC50: Homo sapiens, 22Rv1, MTT, average of three independent experiments
# Protocol: as §3, §4
# [12] = test system: tubulin (colchicine binding site); test: Inhibition of [3H]colchicine binding
# [13] = test system: prostate cancer cell lines CWR22R, LAPC-4 and LnCap; test: MTT growth inhibition, prostate cancer cell lines (panel); format: cell-based, human; details: preliminary screening
# Protocol: as §3, with “In the preliminary screening four BPU sulfur analogs 6l, 6h, 6n, 7d and 8h were screened and their activity was compared with compound 1.” left out
# as §4
# [14] = test system: seven pancreatic cell lines; test: MTT growth inhibition, panel of seven pancreatic cancer cell lines; format: cell-based; details: for times more potent than compound 1, pancreatic cell lines: MTT, seven pancreatic cell lines
# Protocol: as §1, §2
SMILES,pIC50 [2],pIC50 [3],pIC50 [4],pIC50 [5],pIC50 [6],pIC50 [7],pIC50 [8],also measured
Cc1cc(NC(=O)NC(=O)c2ccccc2N(C)C)ccc1Oc1ncc(Br)cn1 [Compound 1],–,–,–,–,–,–,–,"rate of apoptosis, MCF-7 cells ([1]; 10 nM): 16.1%; rate of apoptosis, MCF-7 cells ([1]; 30 nM): 19.5%; rate of apoptosis, MCF-7 cells ([1]; 100 nM): 27.7%"
N=C(NC(=O)c1ccccc1)Oc1ccc(Sc2ncc(Br)cn2)cc1 [Compound 6g],< 5.00,5.12,< 5.00,< 5.00,5.30,5.70,5.26,–
O=C(NC(=S)Nc1ccc(Sc2ncc(Br)cn2)cc1)c1ccccc1 [Compound 6h],5.00,< 5.00,< 5.00,5.02,5.00,5.12,5.07,pIC50 [9]: 5.22; pIC50 [10]: < 5.00; pIC50 [11]: < 5.00
O=C(NC(=O)c1ccccc1[N+](=O)[O-])Nc1ccc(Sc2ncccn2)cc1 [Compound 6l],–,–,–,–,–,–,–,pIC50 [9]: 6.22; pIC50 [10]: 6.30; pIC50 [11]: 5.30
O=C(NC(=O)c1ccccc1[N+](=O)[O-])Nc1ccc(Oc2nccc(Br)n2)cc1 [Compound 6m],–,–,–,–,–,–,–,binding to the colchicine binding site (in words) [12]: poor binding affinity
"O=C(NC(=O)c1ccccc1[N+](=O)[O-])Nc1ccc(Sc2ncc(Br)cn2)cc1 [Compound 6n, 1-[4-(5-Bromopyrimidin-2-ylsulfanyl)phenyl]-3-(2-nitrobenzoyl)-urea]",–,–,–,–,–,–,–,"times more potent than compound 1, prostate cancer cell lines [13]: 20 times; increase in potency of 6n over 6m, Panc203 ([3]; sulfide versus ether link): 14 fold; binding to the colchicine binding site (in words) [12]: poor binding affinity; increase in potency of 6n over 6m, Panc1 ([5]; sulfide versus ether link): 8 fold; killing of MCF-7 cells compared with 1 (in words) [1]: more potent than 1; times more potent than compound 1, pancreatic cell lines [14]: 20 time; increase in potency of 6n over 6m, LnCap ([10]; sulfide versus ether link): 20 fold; increase in potency of 6n over 6m, Mia-paca2 ([6]; sulfide versus ether link): 8 fold; increase in potency of 6n over 6m, CWR22R ([11]; sulfide versus ether link): 100 fold"
Nc1ccccc1C(=O)NC(=O)Nc1ccc(Sc2ncccn2)cc1 [Compound 7b],5.22,5.26,< 5.00,5.12,5.15,5.19,5.10,–
"Nc1ccccc1C(=O)NC(=O)Nc1ccc(Sc2ncc(Br)cn2)cc1 [Compound 7d, 1-(2-Aminobenzoyl)-3-[4-(5-bromopyrimidin-2-ylsulfanyl)phenyl]urea]",–,–,–,–,–,–,–,"increase in activity of 7d compared to 7c, LAPC-4 ([9]; sulfide versus ether link): 7 fold; times more potent than compound 1, prostate cancer cell lines [13]: 20 times; increase in activity of 7d compared to 7c, Panc203 ([3]; sulfide versus ether link): > 117 fold; increase in activity of 7d compared to 7c, Panc1 ([5]; sulfide versus ether link): 39 fold; times more potent than compound 1, pancreatic cell lines [14]: 20 time; increase in activity of 7d compared to 7c, Miapaca2 ([6]; sulfide versus ether link): 9 fold; increase in activity of 7d compared to 7c, Panc430 ([7]; sulfide versus ether link): > 50 fold"
"O=C(NC(=O)c1ccccc1[N+](=O)[O-])Nc1ccc([S+]([O-])c2ncc(Br)cn2)cc1 (stereo not shown) [Compound 8g, 1-[4-(5-Bromopyrimidine-2-sulfinyl)phenyl]-3-(2-nitrobenzoyl)-urea]",5.60,5.26,5.26,5.19,5.10,5.26,5.19,"pIC50 ([14]; Pancreatic cancer cell, all the cell lines of the panel): 5.10 to 5.60"
